Measured values reported in patent US20110166079A1, “METHODS OF TREATING CANCER WITH APOE PEPTIDES” (COGNOSCI, INC., priority 2008, published 2011).

Assays:
[1] = tested on: BCR/Abl+ K562 CML cell line; test: Growth of BCR/Abl+ K562 CML cells (trypan blue counting); assay type: cell-based
Procedure: Cells (20 mL) were seeded in a T-75 flask at a concentration of 0.25×10^6 cells/mL. Each day after seeding, 0.20 mL of cell suspension was removed and centrifuged to collect cells. The cell pellet was resuspended in 500 μL of serum free media and 100 μL of trypan blue stain was added and incubated for 5 minutes before counting the […] cells with a hemacytometer.

PP2A = PP2A activity in K562 CML cells (immunoprecipitation / phosphate release); assay type: cell-based; details: COG112 0.5 μM or 1 μM, 24 hours, FIG. 8B
ERK, Akt, IκK and NFκB = test: Immunoblotting of phospho- and total ERK, Akt, IκK and NFκB in B-CLL cells; assay type: cell-based, human; details: 2 μM COG112, 3 hours, relative to untreated cells
Text: The results of the two previous series of experiments indicate that SET overexpression in CLL cells results in decreased PP2A activity which contributes to the persistence of an anti-apoptotic state in these cells. COG peptides, such as COG112, can induce apoptosis in CLL cells, which may occur through the binding of COG peptides to the SET protein, thereby relieving the suppression of PP2A activity. To further elucidate the mechanism of the cytotoxic effect of COG peptides on CLL cells, the effect of COG112 treatment on the phosphorylation state of key signal transduction proteins and PP2A activity in B-CLL cells is evaluated. […]
Immunoblotting is performed on the extracts from COG112 treated and untreated CLL cells to determine the relative levels of phospho-and total-(phosphorylated plus non-phosphorylated) ERK, Akt, IκK and NFκB. Specifically, cell extracts obtained by the method above will be analyzed to determine the protein concentration of each lysate using the BCA assay kit (Pierce). […] Protein bands are visualized and quantitated using an Odyssey Infrared scanner (LiCor). This method allows for simultaneous quantitation of the phospho-Akt using the emission of the 800 nm channel and of the total Akt using the emission of the 680 nm channel. Following the initial read, a rabbit anti-β-Actin antibody is incubated with the membrane for 1 hour and the membrane is washed. […]

Eμ-TCL1 transgenic mice = test: CLL in Eμ-TCL1 transgenic mice treated with COG112; assay type: in vivo, mouse
Text: In the Eμ-TCL1 transgenic mouse model, the TCL1 gene is placed under control of a B-cell-specific IgVH promoter and IgH-Eμ enhancer. These mice develop normally into adulthood but later develop enlarged spleens, livers, and lymph nodes that are accompanied by high blood lymphocyte counts. The mice eventually die prematurely as the leukemic cells accumulate along with development of advanced lymphoadenopathy Importantly, the accumulated B-cells in these transgeneic TCL1 mice are G0-1 arrested and express CD19+/CD5+/IgM+ just as the human CLL cells (Bichi et al. (2002) Proc Natl Acad Sci USA, Vol. 99: 6955-6960). As further validation of these Eμ-TCL1 transgenic mice as an effective model of human CLL, CLL symptoms in the TCL1 transgenic mice improve following administration of fludarabine, a clinically used anti-CLL therapeutic. […] The effect of COG112 on CLL cell production and life expectancy in the Eμ-TCL1 transgenic mouse model of CLL is evaluated.
Animals (n=6) are treated with either 10 mg/kg of COG112 or a vehicle control daily by subcutaneous injection. After 15 days of treatment, blood is collected by retro-orbital bleeds and white bloods cells quantitated. White-blood cell counts are expected to be reduced in COG112-treated animals relative to the vehicle controls.
At the initiation of treatment, blood is drawn to determine baseline CD5+/CD19+ CLL cell counts and groups of animals (n=20) are treated with a vehicle control (lactated Ringer's solution) or COG112 at doses of 4.0, 1.0, or 0.25 mg/kg. COG112 or the vehicle control is delivered by intraperitoneal injection at a volume of 10 mL/kg. Animals receive injections daily Monday through Friday so that 5 doses are administered per week for 5 weeks (35 days of total treatment). Disease course is monitored by survival, total blood leukocyte and lymphocyte count, and CD19+/CD5+ cell count weekly.
Blood is collected from each mouse on a weekly basis by retro-orbital bleeds for determination of total blood leukocyte and lymphocyte counts as well as CD19+/CD5+ cell counts to assess the leukemia burden. After 5 weeks (35 days of treatment), mice are euthanized and the post treatment leukemia burden is measured by cell counting, spleen weight, and histological analysis of bone marrow, spleen, liver, and lymph nodes.

[2] = Cytotoxicity on PBMC from normal volunteers; assay type: cell-based; details: human, FIG. 4
Procedure: Additional B-CLL cells and peripheral blood mononuclear cells (PBMC; i.e., normal B cells) were isolated from leukemia patients and normal volunteers, respectively, and were treated with a range of COG112 concentrations.

[3] = 4.0, 1.0 or 0.25 mg/kg intraperitoneal, 5 weeks, versus vehicle

For “Ac-RQIKIWFQNRRMKWKKCLRVRLASHLRKLRKRLL-NH2 (N-terminus and C-terminus assumed) [COG112]”, the “K562 cell growth at reduced concentrations” value ([1]; 1 μM COG112, 75 nM Imatinib, alone or combined, FIG. 7B) was “suboptimal inhibition”, the K562 cell growth ([1]; dose response of COG112, Imatinib 1 μM positive control, FIG. 7A) was “dose dependent inhibition” and the PP2A activity (PP2A) was “robust activation”. The “quantity of phosphorylated proteins (ERK, Akt, IκK, NFκB)” value (ERK, Akt, IκK and NFκB) was “significant reduction”, the white-blood cell counts (Eμ-TCL1 transgenic mice; 10 mg/kg daily subcutaneous, 15 days, relative to vehicle) was “reduced” and the “CD19+/CD5+ cell counts” value (Eμ-TCL1 transgenic mice; [3]) was “dose-dependent reduction”. The “CLL burden by histological analysis” value (Eμ-TCL1 transgenic mice; [3]) was “dose-dependent reduction”, the cumulative survival (Eμ-TCL1 transgenic mice; [3]) was “dose-dependent increase” and the spleen weight (Eμ-TCL1 transgenic mice; [3]) was “dose-dependent reduction”. The EC50 [2] was about 20 µM.
